Measurements reported in PMC10404700, “A new member of the flavodoxin superfamily from Fusobacterium nucleatum that functions in heme trafficking and reduction of anaerobilin” (The Journal of Biological Chemistry, 2023).

Molecular target: T1, FldH (Fusobacterium nucleatum, UniProt Q8RI14)
T1 construct: gene FN1822; full-length, 169 residues, N-terminal His6 tag (pET15b) cut with thrombin; expressed in E. coli BL21(DE3)pLysS; monomer
Assay: X-ray crystal structure, […] A
Format: binding
Conditions: heme-bound protein; FMN copurified

T1 sequence (Q8RI14 entry or part of it): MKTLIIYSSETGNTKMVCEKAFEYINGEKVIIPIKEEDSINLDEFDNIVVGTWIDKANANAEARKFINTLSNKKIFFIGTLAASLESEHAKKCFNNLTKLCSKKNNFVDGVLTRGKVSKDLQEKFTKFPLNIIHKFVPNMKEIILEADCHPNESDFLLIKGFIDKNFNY

## Cc1cc2nc3c(=O)[nH]c(=O)nc-3n(C[C@H](O)[C@H](O)[C@H](O)COP(=O)(O)O)c2cc1C [FMN]
  X-ray crystal structure, 1.6 A: The FMN cofactor is situated at the carboxyl-terminal end of the β-parallel sheet
